Results: patent publication US20230123334A1, “AMINO LIPID COMPOUND, PREPARATION METHOD THEREFOR, AND APPLICATION THEREOF” (SHENZHEN SHENXIN BIOTECHNOLOGY CO., LTD., priority 2020, published 2023)

How the values were obtained:
[1] = Particle size and PDI of lipid nanoparticles (Nano-ZSZEN3600, Malvern); assay type: physicochemical; details: LNPs; for Particle size (nm): Fluc mRNA
Procedure: (§1) The amino lipid compound of the invention was mixed with DOPE, cholesterol and PEG2000-DMG in a molar ratio of 45:10:42.5:2.5, and dissolved in absolute ethanol such that the molar concentration of the amino lipid compound was 0.001-0.01 mmol/L. By using a microinjection pump, the resultant ethanol solution and a sodium acetate solution (50 mM, pH=4.0) in which luciferase mRNA (Fluc mRNA, TriLink) was dissolved were mixed in a volume ratio of 1:3 in a microchannel chip to prepare a crude solution of lipid nanoparticles, which was then dialyzed in 1×PBS at a controlled temperature of 4° C. for 6 h using a dialysis box (Fisher, MWCO 20,000) and filtered through a 0.22 μm microporous filter membrane before use. The mass ratio of the amino lipid compound to Fluc mRNA was about 10:1. The resultant solution of lipid nanoparticles (LNPs) was administered to the tested animals by subcutaneous administration.
Characterization of particle size: the particle size and PDI of the prepared lipid nanoparticles were determined by Nano-ZSZEN3600 (Malvern). 40 uL of LNP solution was taken for particle size measurement with circulation for three times, 30 s for each circulation.
(§2) The preparation method was the same as Formulation method 1, except that amino lipid compound, DSPC, cholesterol and PEG2000-DMG were used in a molar ratio of 50:10:38.5: 1.5. The resultant solution of lipid nanoparticles (LNPs) was administered to the tested animals by tail vein and intramuscular injection.

[2] = Encapsulation rate of LNP RNA (Qubit RNA HS Assay kit); assay type: physicochemical; details: LNPs
Procedure: as §1
Detection of encapsulation rate: the concentration of LNP RNA was detected by Qubit® RNA HS Assay kit. The theoretical RNA concentration was given by the total amount of RNA input divided by the total volume of the final solution.
as §2

BALB/c mice = assay: In vivo delivery of luciferase mRNA (Fluc mRNA) by lipid nanoparticles, in vivo imaging; details: 0.5 mg/kg Fluc mRNA, after 12 hours
Procedure: as §1, §2
Animal Preparation: 6-week aged female BALB/c mice weighed about 20 g were selected and fed in a SPF-grade feeding room. Animal tests were conducted strictly according to the guidelines of national health institutions and the requirements of animal ethics.
In vivo delivery: 9 mice were assigned randomly to each group, and the lipid nanoparticle solution was injected by three routes of administration, i.e., subcutaneous, intramuscular and tail vein injection at a dosage of 0.5 mg/kg Fluc mRNA (3 mice for each route of administration). After 12 hours, 200 μL of 10 mg/mL potassium salt of […] (PerkinElmer) was injected into each mouse through the tail vein. After 10 min, the mice were placed under an in vivo imaging system (IVIS-200, Xenogen) to observe the total fluorescence intensity of each mouse and take photographs for record. The expression intensity of Fluc mRNA delivered by representative amino lipid compounds through the three routes of administration are shown in Table 5-7. DLin-MC3 was used as control.

HEK293 cells [3] = assay: Preliminary screening as DNA vectors, GFP transfection of HEK293 cells; assay type: cell-based; details: HEK293 cells; lipid/DOPE liposome with 75 ng plasmid DNA (psin-EGFP-IRES-Puro); number of cells expressing GFP divided by total number of nuclei (Hoechst)
Procedure, shortened: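 Lipid + DOPE liposomes (NaOAc, pH 5.6) complexed w/ 75 ng psin-EGFP-IRES-Puro, 30 min RT; added to 3-5×10^4 HEK293/well, 37° C. Hoechst 0.2 μg/mL at 20-24 h, imaged after further 20-24 h. Efficiency = GFP+ cells / total nuclei.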

HEK293 cells [4] = assay: Preliminary screening as mRNA vectors, EGFP mRNA transfection of HEK293 cells; assay type: cell-based; details: HEK293 cells, 96-well plates, EGFP mRNA 50 ng per well; percentage of GFP fluorescent cells relative to total number of cells (Hoechst)
Procedure, shortened: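 Each well of HEK293 cells received 50 ng of EGFP mRNA. Efficiency was expressed as percent GFP-expressing cells over Hoechst-defined total cell number.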

Hela cells [5] = assay: Transfection of Hela cell line, DNA vectors; assay type: cell-based; details: 75 ng plasmid DNA, GFP cells / total cells
Procedure, shortened: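 Amino lipid/DOPE liposomes in sodium acetate pH 5.6 were complexed with 75 ng psin-EGFP-IRES-Puro plasmid for 30 min at room temperature, then mixed with 3-5×10^4 Hela cells in DMEM/10% FBS at 37° C. Hoechst stain after 20-24 h, imaging after a further 20-24 h. Efficiency = GFP-positive cells / total nuclei.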

Hela cells [6] = assay: Transfection of Hela cell line, mRNA vectors; assay type: cell-based; details: 50 ng EGFP mRNA per well
Procedure, shortened: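 Transfection efficiency was scored as GFP-fluorescent cells over Hoechst-stained total nuclei, with Lipofectamine2000 as reference reagent. Each well of HeLa cells, grown in DMEM plus 10% FBS, received 50 ng EGFP mRNA.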

MCF7 cells [7] = assay: Transfection of MCF7 cell line, DNA vectors; assay type: cell-based; set-up: concentration or dose not given beside the values; details: plasmid DNA, GFP cells / total cells
Procedure, shortened: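 Read-out: GFP-positive cells as % of all Hoechst-stained nuclei after 96-well transfection of MCF7 cells grown in serum-supplemented DMEM. Positive control was Lipofectamine2000, used per manufacturer's protocol.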

MCF7 cells [8] = assay: Transfection of MCF7 cell line, mRNA vectors; assay type: cell-based; details: 50 ng EGFP mRNA per well
Procedure, shortened: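 Efficiency was scored as the fraction of GFP-fluorescent cells over all Hoechst-counted cells after delivery of 50 ng EGFP mRNA per well. Cells were MCF7 grown in serum-supplemented DMEM, and Lipofectamine2000 served as reference.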

[9] = Formulation Method 1 (amino lipid:DOPE:cholesterol:PEG2000-DMG 45:10:42.5:2.5)
[10] = Formulation method 2 (amino lipid:DSPC:cholesterol:PEG2000-DMG 50:10:38.5:1.5)

Row | SMILES | PDI ([1]; Formulation Method 1) | Particle size (nm) [1, 9] [nm] | PDI ([1]; Formulation method 2) | Particle size (nm) [1, 10] [nm] | Encapsulation rate ([2]; Formulation Method 1) [%] | Encapsulation rate ([2]; Formulation method 2) [%] | Fluorescence intensity (expression intensity of Fluc mRNA) (BALB/c mice; intramuscular administration) | Fluorescence intensity (expression intensity of Fluc mRNA) (BALB/c mice; subcutaneous administration) | Fluorescence intensity (expression intensity of Fluc mRNA) (BALB/c mice; tail vein administration) | Absolute DNA transfection efficiency in HEK293 cells (HEK293 cells [3]) [%] | Absolute mRNA transfection efficiency in HEK293 cells (HEK293 cells [4]) [%] | Absolute DNA transfection efficiency in Hela cells (Hela cells [5]) [%] | Absolute mRNA transfection efficiency in Hela cells (Hela cells [6]) [%] | Absolute DNA transfection efficiency in MCF7 cells (MCF7 cells [7]) [%] | Absolute mRNA transfection efficiency in MCF7 cells (MCF7 cells [8]) [%]
1 | CCCCCCCCCCCCCCCCSc1nc(NCCCCCCCC)nc(NCC2CCN(C)CC2)n1 [Compound S16N8D10] | 0.04 | 90 ± 5 | 0.03 | 120 ± 5 | 97.2 | 98.6 | 3.9E+06 | 3.7E+08 | 3.2E+06 |  |  |  |  |  | 
2 | CCCCCCCCCCCCCCCCSc1nc(NCC2CCN(C)CC2)nc(SCCCCCCCCCC)n1 [Compound S10S16D10] | 0.03 | 136 ± 5 | 0.04 | 125 ± 5 | 99.5 | 99.2 | 3.2E+06 | 4.7E+07 | 2.9E+06 | 79.4 | 47.4 |  |  |  | 
3 | CCCCCCCCCCCCCCCCSc1nc(NCCCN2CCN(C)CC2)nc(SCCCCCCCC)n1 [Compound S8S16D9] | 0.01 | 96 ± 5 | 0.02 | 115 ± 5 | 98.7 | 99.4 | 8.2E+06 | 4.2E+06 | 6.5E+06 | 6.7 | 1.5 |  |  |  | 
4 | CCCCCCCCCCCCSc1nc(NCCCN2CCOCC2)nc(SCCCCCCCCCCC)n1 [Compound S11S12D8] | 0.02 | 80 ± 5 | 0.01 | 90 ± 5 | 98.3 | 98.9 | 4.7E+06 | 1.1E+07 | 3.8E+06 | 10.7 | 6.7 |  |  |  | 
5 | CCCCCCCCCCCCCNc1nc(NCCCN(C)C)nc(SCCCCCCCCCCCC)n1 [Compound S12N13D6] | 0.05 | 89 ± 5 | 0.04 | 96 ± 5 | 99.0 | 99.2 | 1.2E+06 | 8.6E+06 | 3.9E+06 |  |  |  |  |  | 

More lines, main results first:

Row | PDI ([1]; Formulation Method 1) | Particle size (nm) [1, 9] [nm] | PDI ([1]; Formulation method 2) | Particle size (nm) [1, 10] [nm] | Encapsulation rate ([2]; Formulation Method 1) [%] | Encapsulation rate ([2]; Formulation method 2) [%] | SMILES | Fluorescence intensity (expression intensity of Fluc mRNA) (BALB/c mice; intramuscular administration) | Fluorescence intensity (expression intensity of Fluc mRNA) (BALB/c mice; subcutaneous administration) | Fluorescence intensity (expression intensity of Fluc mRNA) (BALB/c mice; tail vein administration) | Absolute DNA transfection efficiency in HEK293 cells (HEK293 cells [3]) [%] | Absolute mRNA transfection efficiency in HEK293 cells (HEK293 cells [4]) [%] | Absolute DNA transfection efficiency in Hela cells (Hela cells [5]) [%] | Absolute mRNA transfection efficiency in Hela cells (Hela cells [6]) [%] | Absolute DNA transfection efficiency in MCF7 cells (MCF7 cells [7]) [%] | Absolute mRNA transfection efficiency in MCF7 cells (MCF7 cells [8]) [%]
6 | 0.02 | 79 ± 5 | 0.01 | 95 ± 5 | 99.2 | 98.8 | CCCCCCCCCCCCCCCSc1nc(NCCCCCCCCCCC)nc(NCCN2CCN(C)CC2)n1 [Compound S15N11D5] | 3.7E+06 | 1.9E+08 | 3.7E+06 |  |  |  |  |  | 
7 | 0.04 | 152 ± 5 | 0.05 | 130 ± 5 | 99.1 | 99.6 | CCCCCCCCCCCCCCCCSc1nc(NCCN2CCN(C)CC2)nc(SCCCCCCCCC)n1 [Compound S9S16D5] | 5.2E+06 | 4.2E+07 | 7.5E+06 | 23.5 | 47.8 | 11.7 | 11.7 | 26.6 | 32.0
8 | 0.08 | 87 ± 4 | 0.06 | 127 ± 5 | 98.9 | 99.1 | CCCCCCCCCCCCCCCCSc1nc(NCCCCCCCCC)nc(NCCN2CCCC2)n1 [Compound S16N9D3] | 4.3E+06 | 2.7E+07 | 5.3E+06 |  |  |  |  |  | 
